Experimental data as given in patent US10030016B2 (Sunesis Pharmaceuticals, Inc., priority 2009, dated 2018).
pEC50, pIC50: −log10 of the molar value. Counter-ions that a name gives are not always drawn. Like-named read-outs stand apart in the source and are kept apart here.

Tests used:
PDK1 = PDK1 (Homo sapiens (Human), UniProt O15530); experiment: PDK1 kinase assay (coupled PDK1/AKT/FAM-crosstide assay, IMAP fluorescence polarization); type: biochemical
Method: A PDK1 kinase assay was performed as follows. PDK1 (amino acids 51-359) and AKT2 (amino acids 140-467 fused to PIFtide, amino acids […]) were expressed as N-terminally tagged GST fusion proteins in insect cells and purified to homogeneity. Enzyme activity was determined in a coupled PDK1/AKT/FAM-crosstide assay and phosphorylation of FAM-crosstide was determined by standard IMAP protocol (Molecular Devices). For inhibition studies, compounds were titrated 4-fold in DMSO and diluted 40-fold into assay buffer (10 mM Tris HCl pH7.2; 10 mM MgCl2; 0.01% Triton X-100; 1 mM DTT) containing PDK1, AKT2, and FAM-crosstide (final concentrations: 0.75 nM PDK1, 10 nM unphosphorylated AKT2, and 100 nM crosstide substrate). The kinase reaction was initiated by adding ATP to a final concentration of 40 μM of PDK1 and incubated at 25° C. for 30 min. To detect assay product, the kinase reaction was combined with Progressive Binding Solution (1:600 Progressive Binding Reagent, 50% Buffer A, 50% Buffer B, Molecular Devices) in a 1:3 ratio. The mixture was incubated for 2 hours at 25° C. and the plate was scanned on an Analyst AD with excitation at 485 nm and emission at 530 nm. The fluorescence polarization value “P” is defined by the equation below. The value “mP” is generated by multiplying the P value for each reaction well by a factor of 1000. The value “ΔmP” for each well is the mP value for that well minus the mP value for the average negative control. P=(Fpar−Fperp)/(Fpar+Fperp) Eq.:
Where “par” is fluorescence intensity parallel to the excitation plane; and “perp” is fluorescence intensity perpendicular to the excitation plane. ΔmP values were plotted as a function of compound concentration and the data were analyzed with a 4-parameter fit using GraphPad Prism software.

[1] = system: phospho-akt (Thr308) in PC-3 cells; experiment: Inhibition of phospho-akt (Thr308) in PC-3 cells, MSD phospho-akt 308 ELISA kit; type: cell-based; conditions: Homo sapiens, 2 hours, no serum, read-out: EC50
Method: PC-3 cells were harvested by trypsin and counted. Cells were plated in coated 96-well flat bottom plates (plate 15,000 cells/well in 100 ul growth media (10% FBS, 1× pen-strep) an place in an incubator overnight.
Subject inhibitors were stocked at 50 mM, then diluted to 30 mM (4.8 μl cpd plus […] DMSO) in 100% DMSO. Three-fold dilutions were performed from 30 mM stock. (4 μl into 8 ul 100% DMSO). Aliquots of 1.0 μl of inhibitor solution were transferred into SF Medium (using deep well block).
Control wells were prepared as follows. For DMSO high controls, 1.0 μl of 100% DMSO was added into 1.0 ml SF. For low controls for PC-3 cells, 5 μM of Wortmannin (10 μl of 1 mM Wortmannin stock was added into 2 ml SF Medium. The supernatant media was removed and the plate was blotted. 100 μl of controls/media or compound/media were added to cells and placed in incubator for 2 hours. The supernatant media was removed and the plate was blotted. 55 μl of the MSD complete lysis buffer was added (10 mls Tris Lysis buffer, 200 ul protease inhibitor, 100 ul phosphatase inhibitor 1, and 100 ul phosphatase inhibitor II). The plate was placed on a plate shaker for 60 mins at 4 deg.
MSD plates were blocked for 1 hour by adding 150 μl of Blocking Solution (3% BSA) to each well. The MSD plates were washed 4× with TBST, and 50 μl lysates were transferred to MSD plate and place on plate shaker shake at 4 degrees O/N, light shaking (speed 3.5). The plate was washed 4× with TBST.
25 μl of Ab detection solution was added to each well. The plate was sealed and incubated 1 hr RT, light shaking (speed 3.5). The plate was washed 4 times with TBST. 150 μl of Read Buffer was added (5 mls 4×MSD Read Buffer+15 mls water). Finally the plate was read immediately on the MSD plate reader.

[2] = inhibition of phospo-PDK1 in vitro
[3] = inhibition of P308 Akt in PC-3 cells, MSD
[4] = inhibition of P308 Akt in PC-3 cells using MSD

Chain of PDK1 (O15530 51-359): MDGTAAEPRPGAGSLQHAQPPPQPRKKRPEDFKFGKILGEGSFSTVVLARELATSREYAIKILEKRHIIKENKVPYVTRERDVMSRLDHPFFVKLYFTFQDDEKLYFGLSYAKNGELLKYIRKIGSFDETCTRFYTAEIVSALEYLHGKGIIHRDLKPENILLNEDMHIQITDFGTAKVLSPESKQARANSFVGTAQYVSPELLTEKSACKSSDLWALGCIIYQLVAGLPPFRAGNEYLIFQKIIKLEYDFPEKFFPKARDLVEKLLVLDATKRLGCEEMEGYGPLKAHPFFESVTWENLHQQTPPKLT

pIC50 (PDK1; [2])	pEC50 [1, 3]	pIC50 (PDK1; inhibition of PDK1 in vitro)	pEC50 [1, 4]	pEC50 ([1]; PC-3, 2 h, inhibition of P308 Akt in PC-3 cells, MSD)	SMILES
> 7.00	> 6.00	–	–	–	O=C(NCc1ccc(F)c(F)c1)c1cccnc1NCc1csc(-c2c[nH]c3ncccc23)n1 [Ex. 6.12, N-(3,4-difluorobenzyl)-2-({[2-(1H-pyrrolo[2,3-b]pyridin-3-yl)-1,3-thiazol-4-yl]-methyl}amino) pyridine-3-carboxamide]
> 7.00	> 6.00	–	–	–	Cn1cnc2cnc3ccc(-c4ccc(CNc5ncccc5C(=O)NCc5ccc(F)c(F)c5)s4)cc3c21 [Example 2.24]
6.00 to 7.00	5.00 to 6.00	–	–	–	CN(C)CC(=O)Nc1cnc(NCc2ccc(-c3ccc4ncnc(N)c4c3)s2)c(C(=O)NCc2ccc(F)c(F)c2)c1 [Example 8.5.8, 2-({[5-(4-aminoquinazolin-6-yl)thiophen-2-yl]methyl}amino)-N-(3,4-difluorobenzyl)-5-[(N,N-dimethylglycyl)amino] pyridine-3-carboxamide]
> 7.00	5.00 to 6.00	–	–	–	Nc1cnc(NCc2ccc(-c3ccc4ncnc(N)c4c3)s2)c(C(=O)NCc2ccc(F)c(F)c2)c1 [Ex. 8.4, 2-({[5-(4-aminoquinazolin-6-yl)thiophen-2-yl]methyl}amino)-N-(3,4-difluorobenzyl)-5-aminopyridine-3-carboxamide]
–	–	> 7.00	5.00 to 6.00	–	C[C@H](NC(=O)c1nc(C#N)cnc1NCc1ccc(-c2cnc(N)c(CC[C@@H]3CCCN3)n2)cc1)c1ccc(F)c(F)c1 [Example 78, 3-{4-[5-Amino-6-((S)-2-pyrrolidin-2-yl-ethyl)-pyrazin-2-yl]-benzylamino}-6-cyano-pyrazine-2-carboxylic acid [(S)-1-(3,4-difluoro-phenyl)-ethyl]-amide]
6.00 to 7.00	5.00 to 6.00	–	–	–	Nc1ncnc2ccc(-c3ccc(CNc4ncc(NS(=O)(=O)C(F)(F)F)cc4C(=O)NCc4ccc(F)c(F)c4)s3)cc12 [Example 8.6.3]
< 5.30	5.00 to 6.00	–	–	–	Nc1ncnc2ccc(-c3ccc(CNc4ncccc4C(=O)N4CCc5ccccc5C4)s3)cc12 [Example 3.34, 2-({[5-(4-aminoquinazolin-6-yl)thiophen-2-yl]methyl}amino)-pyridin-3-yl](3,4-dihydroiso-quinolin-2(1H)-yl)methanone (TFA salt)]
–	–	> 7.00	5.00 to 6.00	–	Cc1nc2[nH]nc(N)c2cc1-c1ccc(CNc2ncc(C#N)nc2C(=O)N[C@@H](C)c2ccc(F)c(F)c2)cc1 [Example 400, (S)-3-(4-(3-amino-6-methyl-1H-pyrazolo[3,4-b]pyridin-5-yl)benzylamino)-6-cyano-N-(1-(3,4-difluorophenyl)ethyl)pyrazine-2-carboxamide]
6.00 to 7.00	–	–	–	–	C[C@H](NC(=O)c1cccnc1NCc1ccc(-c2ccc3ncncc3c2)s1)c1ccc(F)cc1 [Example 2.11, (S)-N-(1-(4-fluorophenyl)ethyl)-2-(((5-(quinazolin-6-yl)thiophen-2-yl)methyl)amino)nicotinamide]
–	–	> 7.00	> 6.00	–	CC(=O)Nc1ccc(-c2ccc(CNc3ncc(C#N)cc3C(=O)N[C@@H](C)c3ccc(F)cc3)cc2)cn1 [Example 105, (S)-2-(4-(6-acetamido-pyridin-3-yl)benzylamino)-5-cyano-N-(1-(4-fluorophenyl)ethyl) nicotinamide]
6.00 to 7.00	–	–	–	< 5.00	Nc1ncnc2ccc(-c3ccc(CNc4ncccc4C(=O)NCc4ccc(Cl)cc4)s3)cc12 [Example 3.22, 2-({[5-(4-aminoquinazolin-6-yl)thiophen-2-yl]methyl}amino)-N-(4-chlorobenzyl)pyridine-3-carboxamide (TFA salt)]
> 7.00	> 6.00	–	–	–	C[C@H](NC(=O)c1cc(F)cnc1NCc1ccc(-c2ccc3ncnc(N)c3c2)s1)c1ccc(F)cc1 [Example 7.3.2, (S)-2-(((5-(4-aminoquinazolin-6-yl)thiophen-2-yl)methyl)amino)-5-fluoro-N-(1-(4-fluorophenyl)ethyl) nicotinamide]
> 7.00	5.00 to 6.00	–	–	–	C[C@H](NC(=O)c1cc(S(N)(=O)=O)cnc1NCc1ccc(-c2ccc3ncnc(N)c3c2)s1)c1ccc(F)c(F)c1 [Example 8.7.3, 2-({[5-(4-aminoquinazolin-6-yl)thiophen-2-yl]methyl}amino)-N-[(1S)-1-(3,4-difluorophenyl)ethyl]-5-sulfamoylpyridine-3-carboxamide]
6.00 to 7.00	> 6.00	–	–	–	CNS(=O)(=O)c1cnc(NCc2ccc(-c3ccc4ncnc(N)c4c3)s2)c(C(=O)NCc2ccc(F)c(F)c2)c1 [Ex. 8.7.1, 2-(((5-(4-aminoquinazolin-6-yl)thiophen-2-yl)methyl)amino)-N-(3,4-difluorobenzyl)-5-(N-methylsulfamoyl)nicotinamide]
> 7.00	> 6.00	–	–	–	Nc1n[nH]c2ncc(-c3ccc(CNc4ncc(C(F)(F)F)nc4C(=O)Nc4ccc(F)cc4)cc3)cc12 [Example 39, 3-(4-(3-amino-1H-pyrazolo[3,4-b]pyridin-5-yl)benzylamino)-N-(4-fluorophenyl)-6-(trifluoromethyl)pyrazine-2-carboxamide]
–	–	> 7.00	5.00 to 6.00	–	Nc1ccc(-c2ccc(CNc3nccc4ncn(Cc5ccc(F)c(F)c5)c(=O)c34)cc2)cn1 [Example 374, 5-(4-(6-aminopyridin-3-yl)benzylamino)-3-(3,4-difluorobenzyl)pyrido[4,3-d] pyrimidin-4(3H)-one]
–	–	> 7.00	> 6.00	–	Nc1n[nH]c2ncc(-c3ccc(CNc4ncc(C(F)(F)F)cc4C(=O)NC4CCCCC4)cc3)cc12 [Example 297, 2-(4-(3-amino-1H-pyrazolo [3,4-b]pyridin-5-yl)benzylamino)-N-cyclohexyl-5-(trifluoromethyl)nicotinamide]
5.30 to 6.00	5.00 to 6.00	–	–	–	Nc1ncnc2ccc(-c3ccc(CNc4ncc(NS(=O)(=O)Cc5ccccc5)cc4C(=O)NCc4ccc(F)c(F)c4)s3)cc12 [Example 8.6.6, 2-({[5-(4-aminoquinazolin-6-yl)thiophen-2-yl]methyl}amino)-5-[(benzylsulfonyl)amino]-N-(3,4-difluorobenzyl) pyridine-3-carboxamide]
< 5.30	< 5.00	–	–	–	CCNS(=O)(=O)c1cnc(NCc2ccc(-c3ccc4ncnc(N)c4c3)s2)c(C(=O)NC)c1 [Example 8.6.16, 2-(((5-(4-aminoquinazolin-6-yl)thiophen-2-yl)methyl)amino)-5-(N-ethylsulfamoyl)-N-methylnicotinamide]
< 5.30	< 5.00	–	–	–	C[C@H](NC(=O)c1cccnc1NCc1cn(-c2ccc3[nH]c(=O)[nH]c3c2)nn1)c1ccc(F)c(F)c1 [Example 9.2, (S)-N-(1-(3,4-difluorophenyl)ethyl)-2-(((1-(2-oxo-2,3-dihydro-1H-benzo[d]imidazol-5-yl)-1H-1,2,3-triazol-4-yl)methyl)amino) nicotinamide]
< 5.30	–	–	–	–	Nc1ncnc2ccc(-c3ccc(CNc4ncccc4S(=O)(=O)NCc4ccc(F)c(F)c4)s3)cc12 [Example 20.2, 2-(((5-(4-aminoquinazolin-6-yl)thiophen-2-yl)methyl)amino)-N-(3,4-difluorobenzyl)pyridine-3-sulfonamide]
< 5.30	–	–	–	–	O=C(NC1CC1)c1cccnc1NCc1cccc(-c2c[nH]c3ncccc23)c1 [Example 1.12, N-cyclopropyl-2-{[3-(1H-pyrrolo [2,3-b]pyridin-3-yl)benzyl]amino} pyridine-3-carboxamide]
